For the series, the system named is CCRIS mutagenicity, Ames/micronucleus/aberration tests. The series is described as follows: CCRIS mutagenicity studies.
[1] abbreviates: Test System: AMES SALMONELLA TYPHIMURIUM, Strain/Indicator: TA98, Metabolic Activation: NONE, Method: STANDARD PLATE.
Where [2] appears, read: Test System: AMES SALMONELLA TYPHIMURIUM, Strain/Indicator: TA98, Metabolic Activation: RAT, LIVER, S-9, AROCLOR 1254, Method: STANDARD PLATE.
[3] abbreviates: Test System: AMES SALMONELLA TYPHIMURIUM, Strain/Indicator: TA1535, Metabolic Activation: NONE, Method: STANDARD PLATE.
[4] abbreviates: Test System: AMES SALMONELLA TYPHIMURIUM, Strain/Indicator: TA1535, Metabolic Activation: RAT, LIVER, S-9, AROCLOR 1254, Method: STANDARD PLATE.
Where [5] appears, read: Test System: AMES SALMONELLA TYPHIMURIUM, Strain/Indicator: TA1537, Metabolic Activation: NONE, Method: STANDARD PLATE.
Setting [6] is: Test System: AMES SALMONELLA TYPHIMURIUM, Strain/Indicator: TA1537, Metabolic Activation: RAT, LIVER, S-9, AROCLOR 1254, Method: STANDARD PLATE.
Setting [7] is: Test System: AMES SALMONELLA TYPHIMURIUM, Strain/Indicator: TA100, Metabolic Activation: RAT, LIVER, S-9, AROCLOR 1254, Method: STANDARD PLATE.

Activity calls are given as the source filed them. How the calls were made is not given here.

On to `[N-]=[N+]=[N-]`, for which the mutagenic call by setting is: (Test System: AMES SALMONELLA TYPHIMURIUM, Strain/Indicator: TA97, Metabolic Activation: NONE, Method: STANDARD PLATE) “inactive; negative”; (Test System: AMES SALMONELLA TYPHIMURIUM, Strain/Indicator: TA97, Metabolic Activation: RAT, LIVER, S-9, AROCLOR 1254, Method: STANDARD PLATE) “inactive; negative”; (Test System: AMES SALMONELLA TYPHIMURIUM, Strain/Indicator: TA98, Metabolic Activation: HAMSTER, LIVER, S-9, AROCLOR 1254 (10%), Method: PREINCUBATION) “inactive; negative”; (Test System: AMES SALMONELLA TYPHIMURIUM, Strain/Indicator: TA98, Metabolic Activation: NONE, Method: PREINCUBATION) “inactive; negative”; (Test System: AMES SALMONELLA TYPHIMURIUM, Strain/Indicator: TA98, Metabolic Activation: NONE, Method: SPIRAL ASSAY) “inactive; negative”; under setting [1], “inactive; negative”. The mutagenic call is, setting by setting: (Test System: AMES SALMONELLA TYPHIMURIUM, Strain/Indicator: TA98, Metabolic Activation: RAT, LIVER, S-9, ACRYLAMIDE, Method: STANDARD PLATE) “active; positive”; (Test System: AMES SALMONELLA TYPHIMURIUM, Strain/Indicator: TA98, Metabolic Activation: RAT, LIVER, S-9, AROCLOR 1254 (10%), Method: PREINCUBATION) “inactive; negative”; (Test System: AMES SALMONELLA TYPHIMURIUM, Strain/Indicator: TA98, Metabolic Activation: RAT, LIVER, S-9, AROCLOR 1254, Method: SPIRAL ASSAY) “inactive; negative”; under setting [2], “inactive; negative”; (Test System: AMES SALMONELLA TYPHIMURIUM, Strain/Indicator: TA100, Metabolic Activation: HAMSTER, LIVER, S-9, AROCLOR 1254 (10%), Method: PREINCUBATION) “active; positive”; (Test System: AMES SALMONELLA TYPHIMURIUM, Strain/Indicator: TA100, Metabolic Activation: NONE, Method: PREINCUBATION) “active; positive”. For the same molecule, the mutagenic call is, setting by setting: (Test System: AMES SALMONELLA TYPHIMURIUM, Strain/Indicator: TA100, Metabolic Activation: NONE, Method: SPIRAL ASSAY) “active; positive”; (Test System: AMES SALMONELLA TYPHIMURIUM, Strain/Indicator: TA100, Metabolic Activation: RAT, LIVER, S-9, ACRYLAMIDE, Method: STANDARD PLATE) “active; positive”; (Test System: AMES SALMONELLA TYPHIMURIUM, Strain/Indicator: TA100, Metabolic Activation: RAT, LIVER, S-9, AROCLOR 1254 (10%), Method: PREINCUBATION) “active; positive”; (Test System: AMES SALMONELLA TYPHIMURIUM, Strain/Indicator: TA100, Metabolic Activation: RAT, LIVER, S-9, AROCLOR 1254, Method: SPIRAL ASSAY) “active; positive”; (Test System: AMES SALMONELLA TYPHIMURIUM, Strain/Indicator: TA100, Metabolic Activation: RAT, LIVER, S-9, PCB, Method: PREINCUBATION) “active; positive”; (Test System: AMES SALMONELLA TYPHIMURIUM, Strain/Indicator: TA1530, Metabolic Activation: NONE, Method: STANDARD PLATE) “active; positive”. The mutagenic call reads like this: (Test System: AMES SALMONELLA TYPHIMURIUM, Strain/Indicator: TA1535, Metabolic Activation: HAMSTER, LIVER, S-9, AROCLOR 1254 (10%), Method: PREINCUBATION) “active; positive”; (Test System: AMES SALMONELLA TYPHIMURIUM, Strain/Indicator: TA1535, Metabolic Activation: NONE, Method: PREINCUBATION) “active; positive”; (Test System: AMES SALMONELLA TYPHIMURIUM, Strain/Indicator: TA1535, Metabolic Activation: NONE, Method: SPIRAL ASSAY) “active; positive”; under setting [3], “active; positive”; (Test System: AMES SALMONELLA TYPHIMURIUM, Strain/Indicator: TA1535, Metabolic Activation: RAT, LIVER, S-9, AROCLOR 1254 (10%), Method: PREINCUBATION) “active; positive”; (Test System: AMES SALMONELLA TYPHIMURIUM, Strain/Indicator: TA1535, Metabolic Activation: RAT, LIVER, S-9, AROCLOR 1254, Method: SPIRAL ASSAY) “active; positive”. Also, the mutagenic call by setting is: under setting [4], “active; positive”; (Test System: AMES SALMONELLA TYPHIMURIUM, Strain/Indicator: TA1537, Metabolic Activation: HAMSTER, LIVER, S-9, AROCLOR 1254 (10%), Method: PREINCUBATION) “inactive; negative”; (Test System: AMES SALMONELLA TYPHIMURIUM, Strain/Indicator: TA1537, Metabolic Activation: NONE, Method: PREINCUBATION) “inactive; negative”; under setting [5], “inactive; negative”; (Test System: AMES SALMONELLA TYPHIMURIUM, Strain/Indicator: TA1537, Metabolic Activation: RAT, LIVER, S-9, AROCLOR 1254 (10%), Method: PREINCUBATION) “inactive; negative”; under setting [6], “inactive; negative”. Besides, the mutagenic call is “inactive; negative” (Test System: AMES SALMONELLA TYPHIMURIUM, Strain/Indicator: TA1538, Metabolic Activation: HAMSTER, LIVER, S-9, AROCLOR 1254 (10%), Method: PREINCUBATION); “inactive; negative” (Test System: AMES SALMONELLA TYPHIMURIUM, Strain/Indicator: TA1538, Metabolic Activation: NONE, Method: PREINCUBATION); “inactive; negative” (Test System: AMES SALMONELLA TYPHIMURIUM, Strain/Indicator: TA1538, Metabolic Activation: RAT, LIVER, S-9, AROCLOR 1254 (10%), Method: PREINCUBATION); “active; positive (at higher doses)” (Test System: Ames Salmonella typhimurium, Strain/Indicator: TA1975P, Metabolic Activation: None, Method: Preincubation); “inactive; negative” (Test System: E. COLI, Strain/Indicator: AB2500, Metabolic Activation: NONE, Method: STANDARD PLATE); “inactive; negative” (Test System: E. COLI, Strain/Indicator: WP2 UVRA, Metabolic Activation: HAMSTER, LIVER, S-9, AROCLOR 1254, Method: STANDARD PLATE). Besides, the mutagenic call (Test System: E. COLI, Strain/Indicator: WP2 UVRA, Metabolic Activation: HAMSTER, LIVER, S-9, Method: STANDARD PLATE) is “inactive; negative”; the mutagenic call (Test System: E. COLI, Strain/Indicator: WP2 UVRA, Metabolic Activation: MOUSE, LIVER, S-9, AROCLOR 1254, Method: STANDARD PLATE) is “inactive; negative”; the mutagenic call (Test System: E. COLI, Strain/Indicator: WP2 UVRA, Metabolic Activation: MOUSE, LIVER, S-9, Method: STANDARD PLATE) is “inactive; negative”; the mutagenic call (Test System: E. COLI, Strain/Indicator: WP2 UVRA, Metabolic Activation: NONE, Method: STANDARD PLATE) is “inactive; negative”; the mutagenic call (Test System: E. COLI, Strain/Indicator: WP2 UVRA, Metabolic Activation: RAT, LIVER, S-9, AROCLOR 1254, Method: STANDARD PLATE) was “inactive; negative”; the mutagenic call (Test System: E. COLI, Strain/Indicator: WP2 UVRA, Metabolic Activation: RAT, LIVER, S-9, Method: STANDARD PLATE) was “inactive; negative”. Where the note is “Test System: MOUSE LYMPHOMA, Strain/Indicator: L5178Y (TK+/TK-), Metabolic Activation: NONE, Method: SUSPENSION/PLATE”, the mutagenic call is “active; positive”.

Take `CS(=O)(=O)c1ccc(Cl)cc1`: the mutagenic call reads like this: under setting [1], “inactive; negative”; under setting [2], “inactive; negative”; (Test System: AMES SALMONELLA TYPHIMURIUM, Strain/Indicator: TA100, Metabolic Activation: NONE, Method: STANDARD PLATE) “inactive; negative”; under setting [7], “inactive; negative”; under setting [3], “inactive; negative”; under setting [4], “inactive; negative”. Also, the mutagenic call was “inactive; negative” under setting [5]; “inactive; negative” under setting [6]; “inactive; negative” (Test System: AMES SALMONELLA TYPHIMURIUM, Strain/Indicator: TA1538, Metabolic Activation: NONE, Method: STANDARD PLATE); “inactive; negative” (Test System: AMES SALMONELLA TYPHIMURIUM, Strain/Indicator: TA1538, Metabolic Activation: RAT, LIVER, S-9, AROCLOR 1254, Method: STANDARD PLATE).

Regarding `O[C@H]1C=Cc2c(ccc3cccnc23)[C@@H]1O`, the mutagenic call under setting [7] was “active; positive”.

In the case of `CC(C)(C)CN(N=O)C(N)=O`, the mutagenic call is, setting by setting: (Test System: E. COLI, Strain/Indicator: HS30R UVRA, Metabolic Activation: NONE, Method: PREINCUBATION) “active; positive”; (Test System: E. COLI, Strain/Indicator: O16 POLA, Metabolic Activation: NONE, Method: PREINCUBATION) “active; positive”.

These data come from PubChem BioAssay AID1259407 (Chemical Carcinogenesis Research Information System (CCRIS), 2018).
